Columns and labels:
KCNH6 [1] = biological target: T1, KCNH6 (Homo sapiens, UniProt Q9H252); assay: whole-cell patch-clamp in transfected HEK293 cells (inhibitor control); type: cell-based
T1 construct: human KCNH6 gene in pcDNA3.1, transiently expressed in HEK293 cells
T1 sequence (Q9H252 1-958): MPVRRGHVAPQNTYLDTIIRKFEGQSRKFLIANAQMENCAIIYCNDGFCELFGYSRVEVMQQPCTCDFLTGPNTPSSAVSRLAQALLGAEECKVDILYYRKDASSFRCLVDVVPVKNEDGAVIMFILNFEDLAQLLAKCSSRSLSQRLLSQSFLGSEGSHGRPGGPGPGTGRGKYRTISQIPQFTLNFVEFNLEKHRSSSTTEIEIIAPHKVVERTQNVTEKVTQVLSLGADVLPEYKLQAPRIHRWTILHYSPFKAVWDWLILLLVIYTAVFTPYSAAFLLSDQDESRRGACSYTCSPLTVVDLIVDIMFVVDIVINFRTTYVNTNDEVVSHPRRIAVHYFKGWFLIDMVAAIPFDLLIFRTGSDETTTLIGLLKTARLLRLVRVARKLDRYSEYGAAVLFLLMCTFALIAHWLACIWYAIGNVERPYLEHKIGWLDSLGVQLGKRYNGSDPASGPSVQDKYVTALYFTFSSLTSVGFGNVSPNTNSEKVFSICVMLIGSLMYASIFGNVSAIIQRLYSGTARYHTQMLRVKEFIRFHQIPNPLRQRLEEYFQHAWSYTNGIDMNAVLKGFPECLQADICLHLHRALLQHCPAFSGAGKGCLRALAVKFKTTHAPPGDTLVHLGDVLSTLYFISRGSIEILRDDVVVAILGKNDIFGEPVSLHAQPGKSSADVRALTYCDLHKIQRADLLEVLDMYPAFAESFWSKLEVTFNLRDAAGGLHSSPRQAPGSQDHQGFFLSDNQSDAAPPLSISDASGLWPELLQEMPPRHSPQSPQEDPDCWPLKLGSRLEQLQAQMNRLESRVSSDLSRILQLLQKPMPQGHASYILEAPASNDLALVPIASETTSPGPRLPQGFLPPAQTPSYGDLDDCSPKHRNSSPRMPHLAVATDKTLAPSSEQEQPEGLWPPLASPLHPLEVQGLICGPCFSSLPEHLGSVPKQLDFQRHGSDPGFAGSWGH

KCNH6 [2] = biological target: T1, KCNH6; assay: whole-cell patch-clamp, peak tail current in transfected HEK293 cells; type: cell-based

CN(CCOc1ccc(NS(C)(=O)=O)cc1)CCc1ccc(NS(C)(=O)=O)cc1 [dofetilide]
whole-cell patch-clamp in transfected HEK293 cells (inhibitor control) (KCNH6 [1]): E4031 and dofetilide were used as inhibitor controls

COc1cc(N)c(Cl)cc1C(=O)NC1CCN(CCCOc2ccc(F)cc2)CC1OC (centres unmarked) [cisapride]
IC50 (KCNH6 [2]): 6.04 nM

Reference: paper PMC9618959, “Cisapride induced hypoglycemia via the KCNH6 potassium channel” (Frontiers in Endocrinology, 2022)
